Data taken from patent US20200017771A1, “MEANS AND METHODS FOR LIGNIN PYROLYSIS” (UNIVERSITAET DES SAARLANDES, priority 2017, published 2020).
Read-outs that look alike come from different tables or passages of the source.

Columns and labels:
[1] = tested on: catechol dioxygenase (CatA); experiment: Substrate specificity of catechol dioxygenase in cell extract; assay type: biochemical, Amycolatopsis species ATCC 39116; settings: for Specific activity: 20 μM substrate, MA formation at 260 nm
Method: The cells were harvested by centrifugation, washed in 60 mM Tris-HCl buffer (pH 8.2), and disrupted in pre-packed lysis tubes (0.1 mm silica spheres, Lysing Matrix B, MP Biomedicals, Heidelberg, Germany), using three intervals of disruption in a ribolyzer (Precellys-24, Peq Lab, Hannover, Germany, 3×30 s, 6 m s^−1) with […] on ice in between. Removal of cell debris and protein quantification was performed as previously described (Becker et al., 2009. Appl. Environ. Microbiol. 75, 7866-9). […] The reaction was monitored on-line via the change in absorbance at 260 nm, reflecting the accumulation of MA (c=16,800 M^−1 cm^−1) (Jimenez et al., 2014. Microbiol. 16, 1767-78). […] Controls without cell extract and without substrate were included.
Subsequently, GC-MS analysis of pure MA and of lyophilized culture supernatant from a culture on o-cresol was conducted. […] It was now interesting to see, how this product was actually derived.

[2] = tested on: Amycolatopsis sp. ATCC 39116; experiment: Utilization of aromatics as sole source of carbon (growth, OD600); assay type: cell-based; settings: 2 mM substrate as sole source of carbon in mineral salt medium; OD600 after 40 hours
Method: For genetic engineering work, E. coli strains were grown in liquid Luria-Bertani (LB) medium or on solid LB medium, which additionally contained 20 g L^−1 agar (Becton Dickinson, Heidelberg, Germany). For conjugation, A. species ATCC 39116 was grown in liquid GYM medium, containing per liter: 4 g glucose, 4 g yeast extract (Becton Dickinson), and 10 g malt extract (Becton Dickinson). For sporulation and for cloning purposes, solid GYM medium, additionally containing 20 g L^−1 agar (Becton Dickinson), was used. For the pre-culture and the main culture in growth and production studies, a mineral medium (pH 7.2) was used, which contained per liter: 4.5 g Na2HPO4*7H2O, 3.0 g (NH4)2SO4, 1.0 g KH2PO4, 200 mg NaCl, 200 mg MgSO4.7H2O, 50 mg CaCl2.2H2O, 2 mg ZnSO4.7H2O, 1.2 mg MnCl2.4H2O, 0.4 mg CoCl2.6H2O, 0.2 mg NaMoO4.2H2O, 0.2 mg CuSO4.5H2O. […] For direct MA production from pre-treated lignin, appropriate amounts of the obtained hydrolysate (see below) were added. For plasmid maintenance, kanamycin (50 μg mL^−1) or apramycin (50 μg mL^−1) were added, respectively, when needed. In addition, 5-Bromo-4-chloro-1H-indol-3-yl β-D-gluco-pyranosiduronic acid (X-Gluc) was added to selection agar plates (40 μg mL^−1) for blue white screening.
(§1) Amycolatopsis was cultivated in baffled shake flasks, filled to 10% with liquid medium. Single colonies from agar plates, incubated for 24 h at 37° C., were used as inoculum for the first pre-culture. From there, cells were harvested during the exponential growth by centrifugation (5 min, 8800 xg, and 37° C.), and used afterwards as inoculum for the main culture. All shake flask cultivations were conducted in triplicate at 37° C. and 230 rpm on an orbital shaker (Multitron, Infors AG, Bottmingen, Switzerland).
The wildtype was cultivated in minimal medium on a range of aromatics, reflecting a spectrum of potential lignin-derivable raw materials.

[3] = target: catechol-1,2-dioxygenase (CatA) (Corynebacterium glutamicum, UniProt Q8NN11); experiment: Catechol-1,2-dioxygenase (CatA) activity and kinetics in crude cell extracts; assay type: biochemical
catechol-1,2-dioxygenase (CatA), sequence (Q8NN11 entry or part of it): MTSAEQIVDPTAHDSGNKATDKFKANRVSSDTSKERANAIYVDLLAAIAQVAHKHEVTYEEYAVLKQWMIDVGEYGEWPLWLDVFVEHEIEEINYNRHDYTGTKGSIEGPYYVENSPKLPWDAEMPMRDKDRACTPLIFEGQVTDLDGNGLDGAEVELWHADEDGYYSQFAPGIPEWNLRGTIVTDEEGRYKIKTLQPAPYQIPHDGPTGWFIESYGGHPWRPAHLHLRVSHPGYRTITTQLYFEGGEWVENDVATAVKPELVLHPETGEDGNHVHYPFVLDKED
Method: Crude cell extracts were prepared from exponentially growing cells by mechanical cell disruption. Cell harvest was carried out as previously described (Buschke et al., 2011. Biotechnol. J. 6, 306-17). Aliquots of 1 mL cell suspension were transferred into FastPrep-24 vials (MP Biomedicals, Illkirch-Graffenstaden, France), containing silica beads (Ø 0.1 mm). Cell disruption was carried out in 2×30 sec cycles at 5,000 rpm (Precellys-24, Peqlab, Hannover, Germany), including a 5 minute cooling pause on ice. The extract was also chilled on ice after the disruption. Removal of cell debris and protein quantification was performed as previously described (Becker et al., 2009. Appl. Environ. Microbiol. 75, 7866-9). […] The formation of MA (c=[…]) was monitored via the change in absorbance at 260 nm (Guzik et al., 2013. Int. J. Gen. Mol. Microbiol. 103, 1297-1307). […] The kinetic parameters of the enzyme were obtained by fitting the experimental data to the Michaelis-Menten type kinetic equation (OriginLab, Northhampton, Mass., USA). The protein content in the crude cell extract was quantified, using bovine serum albumin as standard (Pierce BCA Protein Assay Kit, Thermo Fisher Scientific).

[4] = tested on: Corynebacterium glutamicum LIMA-1; assay type: cell-based; settings: glucose as growth substrate; 24 hours
Method: C. glutamicum was grown at 1 mL-scale in a micro bioreactor (BioLector I, m2plabs, Baesweiler, Germany), using 48-well flower plates. […] All cultures were conducted as biological triplicate.
A set of growth experiments was conducted to study potential inhibitory effects of the compounds involved on growth of the producing strains.

[5] = tested on: Corynebacterium glutamicum LIMA-1; experiment: Kinetics and stoichiometry of MA production from aromatics, batch shake flask, LIMA-1; assay type: cell-based
Method: (§2) C. glutamicum was grown in baffled shake flasks with 10% filling volume at 30° C. and 230 rpm on an orbital shaker (Multitron, Infors AG, Bottmingen, Switzerland, 5 cm shaking diameter). The cultivation procedure involved one pre-culture in complex medium (37 g L^−1 BHI) followed by another pre-cultivation and then by the main cultivation, both in minimal medium (Kind et al., 2013. Metab. Eng. 15, 184-95.), which contained the following salts and vitamins per liter: NaCl, 0.055 g CaCl2.H2O, 0.2 g MgSO4.7H2O, 15 g (NH4)2SO4, 24.98 g K2HPO4, 7.7 g KH2PO4, 20 mg FeSO4.7 H2O, 0.5 mg biotin, 1 mg thiamine.HCl, 30 mg 3,4-dihydroxybenzoic acid and 10 mL of a 100× trace element solution (Vallino and Stephanopoulos., 1993. Biotechnol. Bioeng. 41, 633-646). […] The different medium ingredients were combined at room temperature freshly before use. The pH was kept constant at 7.0±0.2 by manual addition of 2 M NaOH. All cultures were conducted as biological triplicate.
(§3) A diode array detector was used for detection of MA (260 nm) and the aromatics (210 nm). The quantification of glucose was carried out by isocratic HPLC (Agilent 1260 Infinity Series, Waldbronn, Germany). The separation was conducted on an Aminex HPX-87H column (300×7.8 mm; Bio-Rad, Munich, Germany) at 55° C. As mobile phase, 3.5 mM H2SO4 was used at a flow rate of 0.8 mL min^−1. The refraction index was used for detection. The concentration of cell dry mass (CDM) was calculated from the measured optical density (OD660) using a correlation factor of CDM (g/L)=0.32×OD660 (Rohles et al., 2016. Microb. Cell Fact. 15, 154). The exact monitoring of the cell concentration during the intracellular metabolite sampling and the above correlation allowed to relate the obtained metabolite levels to the CDM (μmol gCDM^−1). The correlation between the cytoplasmic volume and the CDM (1.95 mL gCDM^−1) was used to express intracellular concentrations in mM (Gutmann et al., 1992. Biochim. Biophys. Acta. 1112, 115-23).

[6] = tested on: Corynebacterium glutamicum LIMA-2; experiment: Kinetics and stoichiometry of MA production from catechol, batch shake flask, LIMA-2; assay type: cell-based; settings: only 10 mM catechol
Method: as §2, §3

[7] = tested on: Amycolatopsis sp. ATCC 39116; experiment: Growth of wildtype on guaiacol as sole source of carbon; assay type: cell-based
Method: as §1
The cell concentration was determined in duplicate as optical density at 600 nm (OD600). The cell dry mass (CDM) was determined gravimetrically in triplicate. In short, 20 mL culture broth was filtered (Whatman cellulose filter, Grade 3, GE-Healthcare Life Sciences, Little Chalfont, UK), washed three times, and dried to constant weight (HB43-S, Mettler-Toledo, Columbus, Ohio, UA). The correlation factor was CDM [g L^−1]=0.45×OD600.
The capability to use guaiacol was found most relevant, given the huge importance of the aromatic as the dominant building block of softwood lignin, and was therefore studied now in more detail. The wildtype was found robust and tolerated elevated levels of guaiacol. Concentrations up 25 mM were utilized (FIG. 25). […] On a quantitative basis, MA reached a level of 0.3 mM, which represented about 5% of the initially added guaiacol. […]

[8] = LIMA-1, initial 20 mM benzoate, 10 mM catechol, 5 mM phenol, glucose added
[9] = column LIMA-1, 10 mM catechol plus 2 mM benzoate as inducer

Cc1cccc(O)c1O [3-Methyl catechol]
Specific activity [1]: 470 ± 9 mU mg^−1
activity relative to that found for catechol ([1]; catechol replaced by equimolar substrate): about 70%

Cc1ccc(O)c(O)c1 [4-Methyl catechol]
accepted as substrate by the enzyme [1]: accepted
Specific activity [1]: 380 ± 5 mU mg^−1

O=C(O)c1ccccc1 [Benzoic acid]
Growth [2]: +++ (OD > 1)
CatA activity of cells cultivated on the aromatic ([3]; LIMA-1 crude extract): 490 mU mg^−1
fold higher CatA activity versus culture only on glucose ([3]; LIMA-1 crude extract): 16 fold
level up to which the mutant grew (highest concentrations tested) [4]: ≤ 80 mM
YMA/Aro, MA yield [5]: 1.00 ± 0.02 mol mol^−1
YX/Glc, biomass yield [5]: 0.46 ± 0.01 g/g
qGlc, specific glucose uptake rate [5]: 0.5 ± 0.0 mmol/g/h
qMA, specific MA production rate [5]: 3.3 ± 0.1 mmol/g/h

Oc1ccccc1O [Catechol]
Growth [2]: ++ (1 > OD > 0.5)
Specific activity [1]: 640 ± 19 mU mg^−1
Specific activity ([1]; listed as catechol): 640 mU mg^−1
Km ([3]; read-out: KM-value for catechol, crude extract of benzoate-grown cells, Michaelis-Menten fit): 2.3 µM
YMA/Aro, MA yield [5, 8]: 0.99 ± 0.02 mol mol^−1
YX/Glc, biomass yield [5, 8]: 0.38 ± 0.01 g/g
qGlc, specific glucose uptake rate [5, 8]: 0.3 ± 0.0 mmol/g/h
qMA, specific MA production rate [5, 8]: 0.2 ± 0.0 mmol/g/h
YMA/Aro, MA yield ([5]; LIMA-1, initial 20 mM benzoate, 10 mM catechol, 5 mM phenol, glucose added, listed as catechol): 1.00±0.01 mol mol^−1
qGlc, specific glucose uptake rate [5, 9]: 0.7 ± 0.0 mmol/g/h
qMA, specific MA production rate [5, 9]: 5.2 ± 0.4 mmol/g/h
YMA/Aro, MA yield [6]: 1.00 ± 0.01 mol mol^−1
YX/Glc, biomass yield [6]: 0.40 ± 0.02 g/g
qGlc, specific glucose uptake rate [6]: 0.4 ± 0.0 mmol/g/h
qMA, specific MA production rate [6]: 3.5 ± 0.1 mmol/g/h

O=C(O)/C=C\C=C/C(=O)O [Cis,cis-muconic acid, (2Z,4Z)-2,4-Hexadienedioate]
Growth [2]: +++ (OD > 1)

COc1ccccc1O [Guaiacol]
Growth [2]: ++ (1 > OD > 0.5)
specific growth rate ([7]; guaiacol as sole carbon source): 0.30 h⁻¹
concentrations utilized (tolerated) up to ([7]; guaiacol as sole source of carbon, 24 hours): ≤ 25 mM

Oc1ccccc1 [Phenol]
Growth [2]: ++ (1 > OD > 0.5)
YMA/Aro, MA yield [5]: 0.95 ± 0.09 mol mol^−1
YX/Glc, biomass yield [5]: 0.48 ± 0.01 g/g
qGlc, specific glucose uptake rate [5]: 0.6 ± 0.0 mmol/g/h
qMA, specific MA production rate [5]: 0.1 ± 0.0 mmol/g/h

Cc1ccccc1 [Toluene]
Growth [2]: + (0.5 > OD > 0.25)

O=C(O)/C=C/c1ccc(O)cc1 [p-Coumaric acid]
Growth [2]: +++ (OD > 1)
